{
  "source": "patent US20250333377A1",
  "about": "“SOLID FORM OF NAPHTHYLAMINE MITOPHAGY INDUCER, AND PREPARATION METHOD THEREFOR, PHARMACEUTICAL COMPOSITION THEREOF AND USE THEREOF” (HANGZHOU PHECDAMED CO., LTD., priority 2023, published 2025)",
  "key": {"Rat pharmacokinetic test": {"assay": "Rat pharmacokinetic test", "type": "in vivo, SD rats", "conditions": "for AUC(0-t): read-out: AUC0-24 h; for MRT inf: read-out: MRT0-∞; for MRT last: read-out: MRT0-24 h", "method": "The plasma kinetic characteristics of the prototype drugs in healthy SD rats are analyzed after three doses of single gavage administration, a single dose of consecutive multiple gavage administration, and a single dose of intravenous injection administration of the sodium salt D crystal form of TJ01-013. These include the rate of absorption and degree of exposure, individual differences, dose relationship, rate of elimination, attainment of steady state, and possible accumulation of D crystal form of TJ01-013. After SD rats are administrated 10, 30, and 90 mg/kg of D crystal form of TJ01-013 by gavage in a single dose, 30 mg/kg of D crystal form of TJ01-013 by gavage in a single dose once per day for 7 consecutive days, and 10 mg/kg of D crystal form of TJ01-013 by intravenous injection in a single dose, the data of the concentrations of the prototype drugs in plasma at different time points in each animal are calculated by applying WinNonlin software fitting, and the mean pharmacokinetic parameters of each group of 6 animals (half of males and half of females) are summarized as shown in Table 12 below."}, "[1]": {"assay": "Solubility in FaSSIF, FeSSIF, water and SGF", "type": "physicochemical", "conditions": "for solubility at 0.5 h / solubility at 2 h / solubility at 24 h: thermodynamic from solid; for Solubility: SGF", "method": "Aliquots of the samples are placed in the media FaSSIF buffer, FeSSIF buffer, water and SGF and tested for solubility at 0.5, 2 and 24 hours, respectively."}, "[2]": {"assay": "Hygroscopicity (vapor sorption analyser, DVS)", "type": "physicochemical", "method": "Single crystalline sample of compound TJ01-013 is tested using a Waters vaporsorption analyser. Taking a dry weighing tray, and laying a single sample of crystal form flat in the weighing tray, and the volume of the loaded samples is about ⅓ to ⅔ of that of the weighing tray. Instrument parameters are set as follows: temperature: 25° C.; equilibrium: dm/dt=0.01%/min (minimum time: 10 minutes, and maximum time: 180 minutes); drying: drying 120 minutes under 0% RH; RH (%) testing gradient: 10%; RH (%) test gradient range: 0%-90%-0%."}, "[3]": {"conditions": "both sexes, SD, rat, plasma, po, 10 mg/kg, SD rats, single gavage, 10 mg/kg"}, "[4]": {"conditions": "both sexes, SD, rat, plasma, po, 30 mg/kg, SD rats, multiple gavage, 30 mg/kg once per day for 7 days"}, "[5]": {"conditions": "both sexes, SD, rat, plasma, po, 30 mg/kg, SD rats, single gavage, 30 mg/kg"}, "[6]": {"conditions": "both sexes, SD, rat, plasma, po, 90 mg/kg, SD rats, single gavage, 90 mg/kg"}, "[7]": {"conditions": "both sexes, Sprague-Dawley (SD), rat, plasma, SD rats, single intravenous injection, 10 mg/kg"}, "[8]": {"conditions": "both sexes, rat, plasma, po, SD rats, single gavage, 10 mg/kg"}, "[9]": {"conditions": "both sexes, rat, plasma, po, SD rats, single gavage, 30 mg/kg"}, "[10]": {"conditions": "both sexes, rat, plasma, po, SD rats, single gavage, 90 mg/kg"}},
  "note": "Like-named read-outs stand apart in the source and are kept apart here.",
  "data": [
    {"smiles": "O=C(O)C[S+]([O-])c1cc(NS(=O)(=O)c2ccc(Br)cc2)c2ccccc2c1O", "note": "(stereo not drawn) [Embodiment 4]", "values": [
      {"measurement": "Dose relationship of exposure (Cmax, AUC0-24 h)", "setting": "Rat pharmacokinetic test; SD rats, single gavage 10, 30, 90 mg/kg", "result": "the increase ratio is smaller than that of the dose"},
      {"measurement": "Pharmacokinetic characteristics (in words)", "setting": "Rat pharmacokinetic test; SD rats, single gavage and intravenous administration", "result": "rapid absorption, low apparent volume of distribution and moderate elimination rate"},
      {"measurement": "Tissue distribution (in words)", "setting": "Rat pharmacokinetic test; SD rats, single intravenous administration", "result": "low degree tissue distribution"},
      {"measurement": "Difference of plasma pharmacokinetic parameters between male and female", "setting": "Rat pharmacokinetic test; SD rats, single intravenous, single and multiple gavage", "result": "no significant difference between male and female"},
      {"measurement": "AUC(0-t)", "setting": "Rat pharmacokinetic test; both sexes, SD, rat, plasma, iv, 10 mg/kg, SD rats, single intravenous injection, 10 mg/kg", "result": "112000 ± 11000", "unit": "ng·h/mL"},
      {"measurement": "AUC(0-inf)", "setting": "Rat pharmacokinetic test; both sexes, SD, rat, plasma, po, 10 mg/kg, SD rats, single gavage", "result": "11100 ± 4320", "unit": "ng·h/mL"},
      {"measurement": "AUC(0-t)", "setting": "Rat pharmacokinetic test; [3]", "result": "10700 ± 4440", "unit": "ng·h/mL"},
      {"measurement": "MRT inf", "setting": "Rat pharmacokinetic test; [3]", "result": "4.82 ± 1.4", "unit": "h"},
      {"measurement": "AUC(0-inf)", "setting": "Rat pharmacokinetic test; [4]", "result": "26600 ± 14200", "unit": "ng·h/mL"},
      {"measurement": "AUC(0-t)", "setting": "Rat pharmacokinetic test; [4]", "result": "26200 ± 13700", "unit": "ng·h/mL"},
      {"measurement": "MRT inf", "setting": "Rat pharmacokinetic test; [4]", "result": "3.86 ± 0.947", "unit": "h"},
      {"measurement": "AUC(0-inf)", "setting": "Rat pharmacokinetic test; both sexes, SD, rat, plasma, po, 30 mg/kg, SD rats, single gavage", "result": "22800 ± 6860", "unit": "ng·h/mL"},
      {"measurement": "AUC(0-t)", "setting": "Rat pharmacokinetic test; [5]", "result": "22100 ± 6660", "unit": "ng·h/mL"},
      {"measurement": "MRT inf", "setting": "Rat pharmacokinetic test; [5]", "result": "5.11 ± 1.84", "unit": "h"},
      {"measurement": "AUC(0-inf)", "setting": "Rat pharmacokinetic test; both sexes, SD, rat, plasma, po, 90 mg/kg, SD rats, single gavage", "result": "50100 ± 12200", "unit": "ng·h/mL"},
      {"measurement": "AUC(0-t)", "setting": "Rat pharmacokinetic test; [6]", "result": "49900 ± 12200", "unit": "ng·h/mL"},
      {"measurement": "MRT inf", "setting": "Rat pharmacokinetic test; [6]", "result": "3.94 ± 0.754", "unit": "h"},
      {"measurement": "AUC(0-inf)", "setting": "Rat pharmacokinetic test; both sexes, Sprague-Dawley (SD), rat, plasma, iv, 10 mg/kg, SD rats, single intravenous injection", "result": "113000 ± 11000", "unit": "ng·h/mL"},
      {"measurement": "MRT inf", "setting": "Rat pharmacokinetic test; both sexes, Sprague-Dawley (SD), rat, plasma, iv, 10 mg/kg, SD rats, single intravenous injection, 10 mg/kg", "result": "2.06 ± 0.192", "unit": "h"},
      {"measurement": "Cmax at 7 days", "setting": "Rat pharmacokinetic test; both sexes, Sprague-Dawley (SD), rat, plasma, po, SD rats, multiple gavage, 30 mg/kg once per day for 7 days", "result": "5900 ± 3210", "unit": "ng/mL"},
      {"measurement": "Tmax at 7 days", "setting": "Rat pharmacokinetic test; both sexes, Sprague-Dawley (SD), rat, plasma, po, SD rats, multiple gavage, 30 mg/kg once per day for 7 days, median (min, max)", "result": 1, "unit": "h"},
      {"measurement": "Tmax", "setting": "Rat pharmacokinetic test; both sexes, Sprague-Dawley (SD), rat, plasma, po, SD rats, single gavage, 10 mg/kg, median (min, max)", "result": 0.5, "unit": "h"},
      {"measurement": "Tmax", "setting": "Rat pharmacokinetic test; both sexes, Sprague-Dawley (SD), rat, plasma, po, SD rats, single gavage, 30 mg/kg, median (min, max)", "result": 0.5, "unit": "h"},
      {"measurement": "Tmax", "setting": "Rat pharmacokinetic test; both sexes, Sprague-Dawley (SD), rat, plasma, po, SD rats, single gavage, 90 mg/kg, median (min, max)", "result": 1, "unit": "h"},
      {"measurement": "clearance", "setting": "Rat pharmacokinetic test; [7]", "result": 1.49, "unit": "mL/min/kg"},
      {"measurement": "half-life", "setting": "Rat pharmacokinetic test; [7]", "result": "2.26 ± 0.222", "unit": "h"},
      {"measurement": "MRT last", "setting": "Rat pharmacokinetic test; [7]", "result": "2 ± 0.168", "unit": "h"},
      {"measurement": "bioavailability", "setting": "Rat pharmacokinetic test; both sexes, rat, plasma, oral, SD rats, single gavage 10 mg/kg versus intravenous 10 mg/kg, read-out: F (absolute bioavailability)", "result": 9.55, "unit": "%"},
      {"measurement": "half-life at 7 days", "setting": "Rat pharmacokinetic test; both sexes, rat, plasma, po, SD rats, multiple gavage, 30 mg/kg once per day for 7 days", "result": "1.94 ± 0.898", "unit": "h"},
      {"measurement": "Cmax", "setting": "Rat pharmacokinetic test; [8]", "result": "3130 ± 1660", "unit": "ng/mL"},
      {"measurement": "half-life", "setting": "Rat pharmacokinetic test; [8]", "result": "3.86 ± 1.47", "unit": "h"},
      {"measurement": "MRT last", "setting": "Rat pharmacokinetic test; [8]", "result": "3.84 ± 0.708", "unit": "h"},
      {"measurement": "Cmax", "setting": "Rat pharmacokinetic test; [9]", "result": "4730 ± 1200", "unit": "ng/mL"},
      {"measurement": "half-life", "setting": "Rat pharmacokinetic test; [9]", "result": "3.54 ± 2.55", "unit": "h"},
      {"measurement": "MRT last", "setting": "Rat pharmacokinetic test; [9]", "result": "4.42 ± 0.923", "unit": "h"},
      {"measurement": "Cmax", "setting": "Rat pharmacokinetic test; [10]", "result": "9980 ± 1850", "unit": "ng/mL"},
      {"measurement": "half-life", "setting": "Rat pharmacokinetic test; [10]", "result": "2.08 ± 0.754", "unit": "h"},
      {"measurement": "MRT last", "setting": "Rat pharmacokinetic test; [10]", "result": "3.89 ± 0.756", "unit": "h"},
      {"measurement": "concentration at 5 min", "setting": "Rat pharmacokinetic test; both sexes, rat, plasma, SD rats, single intravenous injection, 10 mg/kg, read-out: C5 min", "result": "79900 ± 11600", "unit": "ng/mL"},
      {"measurement": "Vd", "setting": "Rat pharmacokinetic test; both sexes, rat, plasma, SD rats, single intravenous injection, 10 mg/kg, read-out: Vss", "result": 0.184, "unit": "L/kg"},
      {"measurement": "Accumulation", "setting": "Rat pharmacokinetic test; rats, 30 mg/kg gavage once a day for 7 consecutive days", "result": "no obvious accumulation"},
      {"measurement": "solubility at 0.5 h", "setting": "[1]; FaSSIF buffer, FaSSIF, 0.5 h", "result": 3300, "unit": "µg/mL"},
      {"measurement": "solubility at 2 h", "setting": "[1]; FaSSIF buffer, FaSSIF, 2 h", "result": 3270, "unit": "µg/mL"},
      {"measurement": "solubility at 24 h", "setting": "[1]; FaSSIF buffer, FaSSIF, 24 h", "result": 2340, "unit": "µg/mL"},
      {"measurement": "solubility at 0.5 h", "setting": "[1]; FeSSIF buffer, FeSSIF, 0.5 h", "result": 1320, "unit": "µg/mL"},
      {"measurement": "solubility at 2 h", "setting": "[1]; FeSSIF buffer, FeSSIF, 2 h", "result": 1380, "unit": "µg/mL"},
      {"measurement": "solubility at 24 h", "setting": "[1]; FeSSIF buffer, FeSSIF, 24 h", "result": 1290, "unit": "µg/mL"},
      {"measurement": "Solubility (in words)", "setting": "[1]; SGF (FIG. 41)", "result": "low solubility"},
      {"measurement": "Solubility", "setting": "[1]; 0.5 h", "result": "Not detected"},
      {"measurement": "Solubility", "setting": "[1]; 2 h", "result": "Not detected"},
      {"measurement": "Solubility", "setting": "[1]; 24 h", "result": "Not detected"},
      {"measurement": "solubility at 0.5 h", "setting": "[1]; Water, 0.5 h", "result": 4100, "unit": "µg/mL"},
      {"measurement": "solubility at 2 h", "setting": "[1]; Water, 2 h", "result": 4190, "unit": "µg/mL"},
      {"measurement": "solubility at 24 h", "setting": "[1]; Water, 24 h", "result": 3870, "unit": "µg/mL"},
      {"measurement": "Solubility (in words)", "setting": "[1]; water, FaSSIF, FeSSIF (FIG. 41)", "result": "high solubility"},
      {"measurement": "Percentage weight gain by moisture absorption", "setting": "[2]; 90% RH, 25° C.", "result": 2.13, "unit": "%"},
      {"measurement": "Hygroscopicity (in words)", "setting": "[2]; according to Table 7, 90% RH", "result": "slightly hygroscopic"}
    ]}
  ]
}
